# System: 454973-116-R2-J3-PDC complex spheroid viability
# Test: Anticancer human tumor 454973-116-R2-J3-PDC patient-derived pancreatic carcinoma cell line growth inhibition [POLQ]
# Details: for IC50: curve of first compound; for viability, T/C: stronger effect = lower value
# Outline: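 Patient-derived tumour cells were co-cultured with HUVEC and mesenchymal stem cells as multicellular spheroids at 37 °C. They were treated with POLQ inhibitors (novobiocin, ART-558, RP6685) alone or combined with other agents. Top concentrations were at or near clinical Cmax (otherwise 10 microM; SN-38 at 1 microM), decreasing in half-log steps.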
# [1] = second compound 0.0316 µM, first compound 0.0316 µM
# [2] = second compound 0.0316 µM, first compound 0.1 µM
# [3] = second compound 0.0316 µM, first compound 0.316 µM
# [4] = second compound 0.0316 µM, first compound 1 µM
# [5] = second compound 0.0316 µM, first compound 3.16 µM
# [6] = second compound 0.0316 µM, first compound 10 µM
# [7] = second compound 0.1 µM, first compound 0.0316 µM
# [8] = second compound 0.1 µM, first compound 0.1 µM
# [9] = second compound 0.1 µM, first compound 0.316 µM
# [10] = second compound 0.1 µM, first compound 1 µM
# [11] = second compound 0.1 µM, first compound 3.16 µM
# [12] = second compound 0.1 µM, first compound 10 µM
# [13] = second compound 0.316 µM, first compound 0.0316 µM
# [14] = second compound 0.316 µM, first compound 0.1 µM
# [15] = second compound 0.316 µM, first compound 0.316 µM
# [16] = second compound 0.316 µM, first compound 1 µM
# [17] = second compound 0.316 µM, first compound 3.16 µM
# [18] = second compound 0.316 µM, first compound 10 µM
# [19] = second compound 1 µM, first compound 0.0316 µM
# [20] = second compound 1 µM, first compound 0.1 µM
# [21] = second compound 1 µM, first compound 0.316 µM
# [22] = second compound 1 µM, first compound 1 µM
# [23] = second compound 1 µM, first compound 3.16 µM
# [24] = second compound 1 µM, first compound 10 µM
# [25] = second compound 3.16 µM, first compound 0.0316 µM
# [26] = second compound 3.16 µM, first compound 0.1 µM
# [27] = second compound 3.16 µM, first compound 0.316 µM
# [28] = second compound 3.16 µM, first compound 1 µM
# [29] = second compound 3.16 µM, first compound 3.16 µM
# [30] = second compound 3.16 µM, first compound 10 µM
# [31] = second compound 10 µM, first compound 0.0316 µM
# [32] = second compound 10 µM, first compound 0.1 µM
# [33] = second compound 10 µM, first compound 0.316 µM
# [34] = second compound 10 µM, first compound 1 µM
# [35] = second compound 10 µM, first compound 3.16 µM
# [36] = second compound 10 µM, first compound 10 µM
# 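Further: spheroids exposed to drugs for seven days before measurement.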
# 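Wherever viability, T/C is given: percent viability relative to DMSO vehicle control wells taken as 100%.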
structure (smiles),measurement,setting,value
CCc1cc2c(N3CCc4c(cc(Cn5ccnc5)cc4-c4cn(C)nc4C(F)(F)F)C3=O)cc(C)nc2c(OC)n1 + Cc1cccc(N(C)C(=O)C2C(O)CCN2c2nc(C)cc(C(F)(F)F)c2C#N)c1,IC50,second compound 0.0316 µM,> 10 µM
same,IC50,second compound 0.1 µM,> 10 µM
same,IC50,second compound 0.316 µM,> 10 µM
same,IC50,second compound 1 µM,> 10 µM
same,IC50,second compound 3.16 µM,> 10 µM
same,IC50,second compound 10 µM,> 10 µM
same,"viability, T/C",[1],94.7%
same,"viability, T/C",[2],84.6%
same,"viability, T/C",[3],87.3%
same,"viability, T/C",[4],75.5%
same,"viability, T/C",[5],76.5%
same,"viability, T/C",[6],56.9%
same,"viability, T/C",[7],92.7%
same,"viability, T/C",[8],99.2%
same,"viability, T/C",[9],80.7%
same,"viability, T/C",[10],80.1%
same,"viability, T/C",[11],74.6%
same,"viability, T/C",[12],60.8%
same,"viability, T/C",[13],93.6%
same,"viability, T/C",[14],84.5%
same,"viability, T/C",[15],87.7%
same,"viability, T/C",[16],76.9%
same,"viability, T/C",[17],76.3%
same,"viability, T/C",[18],61.6%
same,"viability, T/C",[19],100%
same,"viability, T/C",[20],94%
same,"viability, T/C",[21],78.4%
same,"viability, T/C",[22],73.6%
same,"viability, T/C",[23],70.4%
same,"viability, T/C",[24],58.6%
same,"viability, T/C",[25],104%
same,"viability, T/C",[26],89.3%
same,"viability, T/C",[27],84.1%
same,"viability, T/C",[28],74.7%
same,"viability, T/C",[29],74.4%
same,"viability, T/C",[30],63.8%
same,"viability, T/C",[31],88.5%
same,"viability, T/C",[32],90.2%
same,"viability, T/C",[33],74.9%
same,"viability, T/C",[34],71.5%
same,"viability, T/C",[35],64.9%
same,"viability, T/C",[36],53.2%
O=C(Nc1ccc(O)c(NS(=O)(=O)c2ccc(F)cc2)c1)c1ccc(-c2ccccc2)cc1 + Cc1cccc(N(C)C(=O)C2C(O)CCN2c2nc(C)cc(C(F)(F)F)c2C#N)c1,IC50,second compound 0.0316 µM,> 10 µM
same,IC50,second compound 0.1 µM,> 10 µM
same,IC50,second compound 0.316 µM,> 10 µM
same,IC50,second compound 1 µM,> 10 µM
same,IC50,second compound 3.16 µM,> 10 µM
same,IC50,second compound 10 µM,> 10 µM
same,"viability, T/C",[1],98.1%
same,"viability, T/C",[2],108%
same,"viability, T/C",[3],87.1%
same,"viability, T/C",[4],100%
same,"viability, T/C",[5],114%
same,"viability, T/C",[6],82.2%
same,"viability, T/C",[7],96.8%
same,"viability, T/C",[8],97.2%
same,"viability, T/C",[9],101%
same,"viability, T/C",[10],111%
same,"viability, T/C",[11],102%
same,"viability, T/C",[12],85.1%
same,"viability, T/C",[13],105%
same,"viability, T/C",[14],92.7%
same,"viability, T/C",[15],102%
same,"viability, T/C",[16],106%
same,"viability, T/C",[17],110%
same,"viability, T/C",[18],84.9%
same,"viability, T/C",[19],98.9%
same,"viability, T/C",[20],98.1%
same,"viability, T/C",[21],100%
same,"viability, T/C",[22],103%
same,"viability, T/C",[23],108%
same,"viability, T/C",[24],85%
same,"viability, T/C",[25],107%
same,"viability, T/C",[26],98.2%
same,"viability, T/C",[27],98.4%
same,"viability, T/C",[28],103%
same,"viability, T/C",[29],112%
same,"viability, T/C",[30],81.4%
same,"viability, T/C",[31],102%
same,"viability, T/C",[32],105%
same,"viability, T/C",[33],104%
same,"viability, T/C",[34],105%
same,"viability, T/C",[35],95.8%
same,"viability, T/C",[36],74.3%

# From PubChem BioAssay AID1963846 (Molecular Pharmacology Branch, DTP, NCI, 2024)
